From patent US10011874B2, “Androgen receptor mutation” (NOVARTIS AG, priority 2013, dated 2018)

Tests used:
[1] = system: LNCaP lines engineered to express AR-F877L/T878A; test: Long-term colony formation assay, LNCaP expressing AR-F877L/T878A; type: cell-based; conditions: for growth sensitivity compared with bicalutamide: AR-F877L/T878A LNCaP lines, FIG. 6C colony formation
Protocol: (§1) Codon-optimized cDNAs encoding WT or mutant ARs were synthesized (DNA2.0) and subcloned into the pLKO-TREX-HA-Neo (Invitrogen). […] Virus was harvested 2-3 d after transfection, filtered, and used to infect LNCaP, MyC-CaP and VCaP cell cultures in the presence of 8 μg ml-1 polybrene. Infected cells were maintained in neomycin for 3 weeks. In all cases, at least 1000 independent clones were pooled to generate stable cell lines to avoid clonal variations. Stable cell lines infected with control vectors were generated in parallel for use as experimental controls.
(§2) 5000-7500 cells (spontaneous resistant or engineered lines) were seeded in 6-well plates in media supplemented with 10% FCS. […] Viable colonies were stained after 3-4 week cultures. Following media aspiration, 0.5% crystal violet was added to the wells and left overnight. The next morning, crystal violet solution was removed and wells were carefully washed with ddH2O to remove residual staining solution. The plates were air-dried overnight prior to imaging.

[2] = system: strongly resistant LNCaP clones #1, 15, 19, 24 (AR F877L/T878A); test: Short-term CellTiter-Glo growth assay, strongly resistant LNCaP clones; type: cell-based; conditions: for growth sensitivity compared with bicalutamide: strongly resistant clones, FIG. 6B
Protocol: (§3) Cells were re-seeded into 150 cm^2 dishes supplemented with the appropriate treatments once each week. Media and compound was replaced for dish 4 once every week. Once resistant clones emerged, media was aspirated from dish 4. […] Cells from control dishes 1-3 were maintained until resistant clones were cryopreserved to maintain a constant culture time for control and experimental lines.
(§4) 1000 cells (spontaneous resistant or engineered lines) were seeded in media supplemented with 10% FCS. For spontaneous resistant clones, increasing concentrations of compounds were added on the day of seeding whereas for engineered lines, compounds were added after 2 d of doxycycline treatment. In all cases growth assays were performed using CellTiter-Glo Luminescent Cell Viability Assay Reagent (Promega, cat# G7573) 7 d following compound treatment.

[3] = system: AR localization in control (C1) LNCaP line; test: Nuclear/cytoplasmic fractionation of AR, control line C1; type: cell-based; conditions: 10 μM, 24 h
Protocol: (§7) The next day, cells were harvested with trypsin, centrifuged at 500×g for 5 min, washed with PBS, transferred to 1.5 ml microcentrifuge tubes and pelleted by centrifugation at 500×g for 2-3 min. […] Briefly, the pellet was resuspended in 500 μl of ice-cold Cer I buffer and incubated on ice for 10 min. Following incubation, 27.5 μl of ice-cold Cer II buffer was added, vortexed and incubated for 1 min on ice. The lysate/Cer I/II mixture was vortexed again, centrifuged at 14000×g for 5 min and the cytoplasmic extract (supernatant) was transferred to pre-chilled tubes. The insoluble pellet, which contains nuclei, was resuspended in ice-cold 250 μl NER buffer, vortexed and placed on ice. Sample was vortexed for 15 s every 10 min for a total of 40 min. Following incubation, samples were centrifuged at 14000×g for 10 min. Supernatant, which contains the nuclear extract, was transferred to pre-chilled tubes. These samples were processed for immunoblot analysis as described above.

[4] = system: E2F1 target genes DHFR and TK1 in control line; test: qPCR of E2F1 target genes in control line; type: cell-based; conditions: 10 μM, 24 h
Protocol: (§5) For spontaneous clones: 200 k cells were seeded in 6 well plates in RPMI 1640 supplemented with 10% FCS for 2 d prior to treatment with various compounds for 24 h. Alternatively, for experiments involving androgen-depletion, 200 k cells were seeded and grown in 6 well plates in phenol-free RPMI 1640 supplemented with 10% FCS for 2 d. […] Similar protocols were applied for genetically engineered lines except that cells were pretreated with Dox for at least 2 d prior to treatment with various compounds to allow sufficient transgene expression. Total RNA was extracted using the RNeasy plus mini kit (Qiagen, cat#74136) according to the manufacturer's instructions. 1-2 μg of total RNA was used for cDNA synthesis using a high capacity cDNA reverse transcription kit (Applied Biosystems, cat#4368813). cDNA from each sample was diluted 15-20 fold and real-time was performed in triplicates using gene-specific primers and FastStart Universal Probe Master Mix (Rox) (Roche Applied Science) on an ABI 7900HT series PCR machine. Expression levels were normalized to TBP expression. All analysis was performed using the SDS2.3 software. The following gene-specific primers (Invitrogen) were used: AR (Hs00171172_m1), KLK3 (Hs02576345_m1), NKX3-1 (Hs00171834_m1), TMPRSS2 (Hs01120965_m1), SLC45A3 (Hs00263832_m1), TBP (Hs00427620_m1), DHFR (Hs00758822_s1) and TK1 (Hs01062125_m1).

[5] = randomized clinical trial; cited from earlier work
CYP2C19 = conditions: in humans; cited from earlier work
[6] = system: AR localization in strongly resistant clone #1; test: Nuclear/cytoplasmic fractionation of AR, strongly resistant clone #1; type: cell-based; conditions: 10 μM, 24 h
Protocol: as §7

[7] = system: AR pathway activity in strongly resistant clones; test: Microarray clustering and GSEA of AR pathway activity, strongly resistant clones; type: cell-based; conditions: 10 μM, 24 h
Protocol: (§6) Total RNA was isolated from cells using the Qiagen RNeasy Kit. RNA integrity and purity were assessed with the RNA 6000 Nano LabChip system on a Bioanalyzer 2100 (Agilent Technologies). Generation of labeled cDNA and hybridization to Affymetrix GeneChip Human Genome U133 Plus 2.0 Array (Affymetrix Inc.) was performed using standard protocols as previously described (8). Probesets from the Affymetrix gene expression datasets were normalized using MASS with a trimmed-mean target of 150, and log 2-transformed. Probesets were then filtered for inclusion only if their maximum value over different samples was at least 5. […] This regression was used to generate nominal p-values and regression coeffecients (i.e. fold-changes).

LNCaP cells = test: Culture of LNCaP cells with MDV3100; type: cell-based; conditions: short-term culture (<1.5 months); FCS+MDV relative to FCS
Protocol: as §3, with “2 million LNCaP cells were seeded into four 150 cm^2 tissue culture dishes in phenol red-free RPMI 1640 media supplemented with 10% FCS. […] Cells were” for “Cells were”

CYP3A4 = conditions: in humans; cited from earlier work
[8] = system: AR pathway activity in control and weakly resistant lines; test: Microarray clustering and GSEA of AR pathway activity, control and weakly resistant lines; type: cell-based; conditions: 10 μM, 24 h
Protocol: as §6

[9] = system: LNCaP control (C1) tumors; test: In vivo tumorigenesis assay, control C1 xenografts; set-up: species or system castrated male nu/nu mice
Protocol: 10 million LNCaP cells (C1, clone #1) mixed 1:1 with matrigel were injected subcutaneously into the flank of castrated 7-8 week male nu/nu mice. […]. Tumors were measured using calipers and tumor volumes were calculated using length×width/2. Data is expressed as mean±SEM. All animal experiments were performed in compliance with the guidelines of Novartis Biomedical Research Animal Care and Use Committee protocols and regulations.

[10] = system: AR target genes KLK3, NKX3-1 and SLC45A3 in strongly resistant clones; test: qPCR of AR target genes in strongly resistant clones; type: cell-based; conditions: 24 h
Protocol: as §5

CYP2C9 = conditions: in humans; cited from earlier work
[11] = system: weakly resistant LNCaP clones #9, 10 and 14; test: Short-term CellTiter-Glo growth assay, weakly resistant LNCaP clones; type: cell-based; conditions: Homo sapiens, read-out: aggregate IC50, growth inhibition
Protocol: as §3, §4

[12] = system: W742L and W742C mutant ARs; test: AR luciferase reporter transactivation assay, W742 mutants; type: cell-based, human; conditions: 10 μM, FIG. 12
Protocol: Reporter assays were performed as follows: 3×10^5 HEK293T cells were seeded in 6-well plates in DMEM supplemented with 10% FCS and 1×NEAA 24 h prior to transfection. Alternatively, 1×10^6 VCaP cells or 3×10^5 PC3 cells were seeded in 6-well plates in appropriate media supplemented with 10% CSS 24 h prior to transfection. […] Cells were collected ˜16 h following treatment and assayed for luciferase activity using the Glomax 96 microplate luminometer (Promega). Firefly activity was normalized to Renilla using the Dual Luciferase Assay reagent (Promega, E1910). All experiments were performed at least three times.

[13] = system: LNCaP lines engineered to express W742C/T878A AR
Protocol: as §1, §2

[14] = system: W742C/T878A mutant AR (KLK3 expression); type: cell-based
Protocol: as §1

[15] = system: LNCaP cells, controls (C1-C3); test: cells; conditions: Homo sapiens, read-out: aggregate IC50, growth inhibition
Protocol: as §3, §4

[16] = system: T878A-bearing mutant alleles of AR (KLK3 expression); test: qPCR of KLK3 in LNCaP engineered to express T878A-bearing mutant ARs; type: cell-based; conditions: 10 μM; 10% FCS; FIG. 15
Protocol: […]. […] Infected cells were maintained in neomycin for 3 weeks.
as §5, with “The following gene-specific primers (Invitrogen) were used: AR (Hs00171172_m1), KLK3 (Hs02576345_m1), NKX3-1 (Hs00171834_m1), TMPRSS2 (Hs01120965_m1), SLC45A3 (Hs00263832_m1), TBP (Hs00427620_m1), DHFR (Hs00758822_s1) and TK1 (Hs01062125_m1).” left out

CN(C)C(=O)c1cc2cnc(Nc3ccc(N4CCNCC4)cn3)nc2n1C1CCCC1 [LEE011, 7-Cyclopentyl-2-(5-piperazin-1-yl-pyridin-2-ylamino)-7H-pyrrolo[2,3-d]pyrimidine-6-carboxylic acid dimethylamide]
growth sensitivity compared with bicalutamide [1]: as sensitive | growth sensitivity compared with bicalutamide [2]: as sensitive

CNC(=O)c1ccc(N2C(=S)N(c3ccc(C#N)c(C(F)(F)F)c3)C(=O)C2(C)C)cc1F [MDV3100, 4-{3-[4-cyano-3-(trifluoromethyl)phenyl]-5,5-dimethyl-4-oxo-2-sulfanylideneimidazolidin-1-yl}-2-fluoro-N-methylbenzamide]
nuclear AR localization [3]: significantly impaired | expression of E2F1 target genes DHFR and TK1 [4]: suppressed expression | incidence of most common adverse drug reactions (asthenia/fatigue, back pain, diarrhea, arthralgia, hot flush etc.) [5]: ≥ 5% | CYP2C19 induction (CYP2C19): moderate | nuclear AR localization [6]: not significantly altered | AR pathway activity upon treatment [7]: insignificant change | effect of short-term culture on cell population (LNCaP cells): population-wide stasis | CYP3A4 induction (CYP3A4): strong | AR pathway activity upon treatment [8]: reduced AR pathway activity | body weight during treatment period ([9]; control 1 xenograft mice, 30 mg/kg daily): No significant body weight loss | tumor growth under treatment ([9]; control C1 tumors, 30 mg/kg daily): immediate stasis | tumor take rates, treated vs. vehicle ([9]; control cells C1, 9 of 15 vs. 10 of 15): indistinguishable | effect on expression of AR target genes KLK3, NKX3-1 and SLC45A3 ([10]; 10 μM, 10% FCS, FIG. 2c): blunted effects | KLK3 expression ([10]; media stripped of androgens (10% CSS), alone or with agonist): significantly enhanced KLK3 expression | CYP2C9 induction (CYP2C9): moderate

CC(=O)c1c(C)c2cnc(Nc3ccc(N4CCNCC4)cn3)nc2n(C2CCCC2)c1=O [PD0332991]
growth sensitivity compared with bicalutamide [1]: as sensitive | growth sensitivity compared with bicalutamide [2]: as sensitive

CC(O)(CS(=O)(=O)c1ccc(F)cc1)C(=O)Nc1ccc(C#N)c(C(F)(F)F)c1 (stereo not drawn) [bicalutamide, N-[4-cyano-3-(trifluoromethyl)phenyl]-3-[(4-fluorophenyl)sulfonyl]-2-hydroxy-2-methylpropanamide]
IC50 [11]: > 10 µM | agonist/antagonist behaviour in AR reporter assay [12]: antagonist-to-agonist switch | growth under treatment on expression of W742C/T878A allele [13]: significantly rescued growth | agonist/antagonist behaviour on KLK3 expression [14]: antagonist-to-agonist switch | growth under treatment on expression of F877L/T878A allele [1]: remained sensitive | IC50 [15]: 1 µM | IC50 ([2]; Homo sapiens, LNCaP, read-out: aggregate IC50, growth inhibition): 5 µM

CC(C)(O)C(=O)Nc1ccc([N+](=O)[O-])c(C(F)(F)F)c1 [hydroxyflutamide]
agonist/antagonist behaviour on KLK3 expression [16]: antagonist-to-agonist switch
